Test results published in paper PMC12822132, “Targeting mechanosensitive cannabinoid receptor 1 with isoflavone prodrugs attenuates atherosclerotic endothelial dysfunction” (Journal of Biomedical Science, 2026).

Target: T1, cannabinoid receptor 1 (CB1) (Homo sapiens, UniProt P21554)
T1 construct: gene CNR1; human recombinant receptor expressed in Chem-1 cells
Assay: radioligand displacement binding assay
Format: cell-based

T1 sequence (P21554 whole entry): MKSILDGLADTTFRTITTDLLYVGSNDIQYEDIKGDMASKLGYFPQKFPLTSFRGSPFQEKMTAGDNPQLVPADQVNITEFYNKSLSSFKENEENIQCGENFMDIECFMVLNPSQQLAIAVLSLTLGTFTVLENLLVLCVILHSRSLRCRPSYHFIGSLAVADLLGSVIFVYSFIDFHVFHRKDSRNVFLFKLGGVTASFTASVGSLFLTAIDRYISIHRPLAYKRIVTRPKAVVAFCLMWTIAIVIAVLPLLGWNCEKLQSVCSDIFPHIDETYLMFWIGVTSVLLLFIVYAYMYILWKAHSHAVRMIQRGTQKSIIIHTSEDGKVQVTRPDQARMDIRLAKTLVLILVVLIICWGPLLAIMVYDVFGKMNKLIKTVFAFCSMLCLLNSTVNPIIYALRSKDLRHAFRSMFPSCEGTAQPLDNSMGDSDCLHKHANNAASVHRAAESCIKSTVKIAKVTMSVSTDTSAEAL

O=c1c(-c2ccc(O)cc2)coc2cc(O)cc(O)c12 [genistein]
Ki: 140 nM
